Patent publication US9969709B2, “Guanidinobenzoic acid ester compound” (Takeda Pharmaceutical Company Limited, priority 2013, dated 2018)
Where a name gives a salt, the structure may show the parent alone.

How the values were obtained:
[1] = molecular target: T1, human recombinant trypsin (rh-trypsin) (Homo sapiens, UniProt P07477); test: Trypsin inhibitory activity, human recombinant trypsin, BZiPAR fluorescent substrate; assay type: biochemical; conditions: 30 min at room temperature, read-out: r-h Trypsin inhibitory activity (IC50)
T1 construct: purchased Wako Pure Chemical Industries, Ltd. 206-17171
Protocol: (§1) 1. Confirmation of Trypsin Inhibitory Activity in Humans and Mice In the experiment, human recombinant trypsin (rh-trypsin; manufactured by Wako Pure Chemical Industries, Ltd.), cat. #206-17171) and mouse trypsin (m-trypsin; purified from the mouse small intestine contents by the present inventors) were used. The method for purifying m-trypsin from the contents of the mouse small intestine is shown below. The compound was dissolved in dimethyl sulfoxide (DMSO), and diluted to an arbitrary concentration (A). A was 100-fold diluted with a buffer (0.1 M Tris (pH 8.0), 0.15 M NaCl, 10 mM CaCl2, 0.05% Brij35) (B). The rh-trypsin was diluted with a buffer to 0.088 μg/mL, and for the m-trypsin, the purified fraction liquid was 50-fold diluted with the buffer (C). […] A BZiPAR solution (Rhodamine Reference Substrate) which is substrate for the trypsin enzyme was diluted with the buffer to […] (D). 5 μL of B, 5 μL of C, and 10 μL of D were added to a 384-well plate, and incubated at room temperature for 30 minutes. Fluorescent signals were detected at a maximum excitement (Ex)/fluorescent wavelength (Em)=497 nm/520 nm using a Tecan Safire Fluorometer. […] Based on the obtained inhibitory rates, the trypsin inhibitory activities (IC50 values, nM) were calculated from the non-linear regression.

ICR mice = test: Test of increase in fecal protein concentration using mice; assay type: in vivo, mouse; conditions: 5 mg/kg oral, male ICR mice, feces collected 3 to 9 hours after feeding started, control group = 1; for response vs control in vivo at 5 mg/kg: Mus musculus, po, 9 h, read-out: Fecal protein, Folds (vs. control)
Protocol: 2. Test of Increase in Fecal Protein Concentration Using Mice
For the experiment, 6-week old male ICR mice were used. The experiment was carried out in five mice per group. After fasting the mice for 15 hours, the control group was forcibly orally administered with a 0.5% methyl cellulose (MC) solution, and the test drug group was forcibly orally administered (5 mg/kg) with a solution or suspension obtained by dissolving or suspending the compound in the 0.5% MC solution. The fasting was stopped immediately thereafter, free feeding (CE-2) was started, and then the feces were collected from after 3 hours to after 9 hours, and weighed. All of the obtained feces were suspended in 6 mL of distilled water, and centrifuged at 1,940×g for 10 minutes. The protein concentration in the obtained supernatant was measured by a Bradford method, and the amount of the protein in 1 g of feces was calculated by dividing the protein concentration in the feces by the total weight of feces. Further, the efficacy was investigated from the ratio to the control group. For the compounds that were evaluated multiple times, the average values were calculated.
The results of the activities with an increase in Fecal Protein, assuming a value for the control group as 1, are shown in Table 2.

[2] = test system: T2, mouse trypsin (m-trypsin); test: Trypsin inhibitory activity, mouse trypsin purified from small intestine contents, BZiPAR fluorescent substrate; assay type: biochemical; conditions: 30 min at room temperature
T2 construct: mouse trypsin (m-trypsin)
Text: 1. Confirmation of Trypsin Inhibitory Activity in Humans and Mice
In the experiment, human recombinant trypsin (rh-trypsin; manufactured by Wako Pure Chemical Industries, Ltd.), cat. #206-17171) and mouse trypsin (m-trypsin; purified from the mouse small intestine contents by the present inventors) were used. The method for purifying m-trypsin from the contents of the mouse small intestine is shown below.
The small intestine contents and the gastrointestinal tract obtained from 10 mice were homogenized in phosphate buffer saline (PBS) using Polytron, and subjected to centrifugation several times at 15,000×g for 10 minutes. The supernatant was mixed at 4° C. for 16 hours with a Benzamidine Sepharose 4 Fast Flow Resin (GE Healthcare: #17-5123-10). After washing the resin with PBS, m-trypsin was eluted with a glycine buffer (pH 3.0) to carry out purification. It was confirmed by Western blot analysis that the obtained purified fraction was recognized as an Anti-mouse Trypsin Antibody (Santa Cruz Biotechnology, Inc.: sc-67388). The method for measuring the trypsin inhibiting activity is shown below.
as §1, with “The” for “1. Confirmation of Trypsin Inhibitory Activity in Humans and Mice In the experiment, human recombinant trypsin (rh-trypsin; manufactured by Wako Pure Chemical Industries, Ltd.), cat. #206-17171) and mouse trypsin (m-trypsin; purified from the mouse small intestine contents by the present inventors) were used. The method for purifying m-trypsin from the contents of the mouse small intestine is shown below. The”

Molecule `N=C(N)Nc1ccc(C(=O)Oc2ccc3c(c2)CCCC3CC(=O)N(CC(=O)O)Cc2cccc(C(=O)O)c2)cc1` (single isomer, unassigned) [Example 5, 3-{[({(1R)-6-[(4-carbamimidamidobenzoyl)oxy]-1,2,3,4-tetrahydronaphthalen-1-yl}acetyl)(carboxymethyl)amino]methyl}benzoic acid or an enantiomer thereof] has an IC50 [1] of 190 pM, a response vs control in vivo at 5 mg/kg (ICR mice) of 188% and an IC50 [2] of 270 pM.
In the case of `Cl.N=C(N)Nc1ccc(C(=O)Oc2ccc3c(c2)CCCC3CC(=O)N(CC(=O)O)Cc2cccc(C(=O)O)c2)cc1` (single isomer, unassigned) [Example 6, 3-{[({(1R)-6-[(4-carbamimidamidobenzoyl)oxy]-1,2,3,4-tetrahydronaphthalen-1-yl}acetyl)(carboxymethyl)amino]methyl}benzoic acid or an enantiomer thereof], the IC50 [1] is reported as 290 pM, the “Fecal protein, Folds (vs. control)” value (ICR mice) is reported as 1.84 and the IC50 [2] is reported as 200 pM.
For `C[C@H](C(=O)O)N(Cc1csc(C(=O)O)c1)C(=O)CC1CCCc2cc(OC(=O)c3ccc(NC(=N)N)cc3)ccc21` (single isomer, unassigned) [Example 7, 4-({({(1R)-6-[(4-carbamimidamidobenzoyl)oxy]-1,2,3,4-tetrahydronaphthalen-1-yl}acetyl) [(1R)-1-carboxyethyl]amino}methyl)thiophene-2-carboxylic acid or an epimer at position 1 of the 1,2,3,4-tetrahydronaphthalene], the IC50 [1] was 300 pM, the response vs control in vivo at 5 mg/kg (ICR mice) was 183% and the IC50 [2] was 260 pM.
`C[C@H](C(=O)O)N(Cc1csc(C(=O)O)c1)C(=O)CC1CCCc2cc(OC(=O)c3ccc(NC(=N)N)cc3)ccc21` (single isomer, unassigned) [Example 8, 4-({({(1R)-6-[(4-carbamimidamidobenzoyl)oxy]-1,2,3,4-tetrahydronaphthalen-1-yl}acetyl) [(1R)-1-carboxyethyl]amino}methyl)thiophene-2-carboxylic acid or an epimer at position 1 of the 1,2,3,4-tetrahydronaphthalene] was tested, and the IC50 [1] was 430 pM, the “Fecal protein, Folds (vs. control)” value (ICR mice) was 1.90 and the IC50 [2] was 570 pM.
`N=C(N)Nc1ccc(C(=O)Oc2ccc3cc(C(=O)N(CC(=O)O)Cc4csc(C(=O)O)c4)ccc3c2)cc1` [Example 1, 4-{[{6-[(4-carbamimidamidobenzoyl)oxy]-2-naphthoyl}(carboxymethyl)amino]methyl}thiophene-2-carboxylic acid monohydrochloride] gave an IC50 [1] of 310 pM, a response vs control in vivo at 5 mg/kg (ICR mice) of 200% and an IC50 [2] of 410 pM.
`N=C(N)Nc1ccc(C(=O)Oc2ccc3c(C(=O)N[C@@H](Cc4ccc(C(=O)O)cc4)C(=O)O)cccc3c2)cc1` [Example 3, N-{6-[(4-carbamimidamidobenzoyl)oxy]-1-naphthoyl}-4-carboxy-L-phenylalanine monohydrochloride] showed an IC50 [1] of 210 pM, a response vs control in vivo at 5 mg/kg (ICR mice) of 209% and an IC50 [2] of 220 pM.
`N=C(N)Nc1ccc(C(=O)Oc2ccc3c(c2)CCC(C(=O)N(CC(=O)O)Cc2csc(C(=O)O)c2)C3)cc1` (stereo not shown) [Example 4, 4-{[({6-[(4-carbamimidamidobenzoyl)oxy]-1,2,3,4-tetrahydronaphthalen-2-yl}carbonyl)(carboxymethyl)amino]methyl}thiophene-2-carboxylic acid monohydrochloride] gave an IC50 [1] of 430 pM, a response vs control in vivo at 5 mg/kg (ICR mice) of 262% and an IC50 [2] of 610 pM.
For `N=C(N)Nc1ccc(C(=O)Oc2ccc3c(c2)OCC3CC(=O)N(CC(=O)O)Cc2cccc(C(=O)O)c2)cc1` (stereo not shown) [Example 10], the IC50 [1] was 1200 pM and the IC50 [2] was 1400 pM.
With `N=C(N)Nc1ccc(C(=O)Oc2ccc3c(c2)CCC3CC(=O)N(CC(=O)O)Cc2cccc(C(=O)O)c2)cc1` (stereo not shown) [Example 11] the IC50 [1] was 310 pM, the response vs control in vivo at 5 mg/kg (ICR mice) was 263% and the IC50 [2] was 680 pM.
With `N=C(N)Nc1ccc(C(=O)Oc2ccc3c(CC(=O)N(CC(=O)O)Cc4cccc(C(=O)O)c4)coc3c2)cc1` [Example 12] the IC50 [1] was 1500 pM and the IC50 [2] was 1700 pM.
